Structures are written as SMILES.

In this test the test system is pseudovirus of SARS-CoV-2 original strain (SARS-CoV-2 WT). The settings on record: for IC50: read-out: IC50, inhibitory effect on pseudovirus, Hela hACE2 cells.

The IC50 is the concentration that inhibits the measured activity by half. As for `CC[C@H](C)[C@H](NC(=O)CNC(=O)[C@H](CO)NC(=O)[C@@H](NC(=O)[C@H](CC(=O)O)NC(=O)CNC(=O)[C@H](Cc1ccccc1)NC(=O)[C@H](CCCCN)NC(=O)[C@@H](N)C(C)C)[C@@H](C)CC)C(=O)N[C@@H](CC(N)=O)C(=O)N[C@@H](C)C(=O)N[C@@H](CO)C(=O)N[C@H](C(=O)N[C@H](C(=O)N[C@@H](CC(N)=O)C(=O)N[C@H](C(=O)N[C@@H](CCCCN)C(=O)N[C@@H](CCC(=O)O)C(=O)N[C@@H](CCC(=O)O)C(=O)N[C@H](C(=O)N[C@@H](CC(=O)O)C(=O)N[C@@H](CCCNC(=N)N)C(=O)N[C@@H](CC(C)C)C(=O)N[C@@H](Cc1ccc(O)cc1)C(=O)N[C@@H](CCC(=O)O)C(=O)N[C@H](C(=O)N[C@H](C(=O)N[C@@H](CCCCN)C(=O)N[C@@H](CC(N)=O)C(=O)N[C@@H](CC(C)C)C(=O)N[C@@H](CC(N)=O)C(=O)N[C@@H](CCC(=O)O)C(=O)N[C@@H](CO)C(=O)N[C@@H](CC(C)C)C(=O)N[C@H](C(=O)N[C@@H](CC(=O)O)C(=O)N[C@@H](CC(C)C)C(=O)N[C@@H](CCC(N)=O)C(=O)N[C@@H](CCC(=O)O)C(=O)N[C@@H](CC(C)C)C(=O)O)[C@@H](C)CC)C(C)C)C(C)C)[C@@H](C)CC)[C@@H](C)CC)C(C)C)C(C)C` [Polypeptide P3-3], the “Increase multiple (fold increase in the inhibitory effect compared to the polypeptide P3)” value is recorded as 3.4 and the concentration for half-maximal inhibition (IC50) came out at 230 nM.

For `CC[C@H](C)[C@H](N)C(=O)N[C@@H](CO)C(=O)NCC(=O)N[C@H](C(=O)N[C@@H](CC(N)=O)C(=O)N[C@@H](C)C(=O)N[C@@H](CO)C(=O)N[C@H](C(=O)N[C@H](C(=O)N[C@@H](CC(N)=O)C(=O)N[C@H](C(=O)N[C@@H](CCC(N)=O)C(=O)N[C@@H](CCCCN)C(=O)N[C@@H](CCC(=O)O)C(=O)N[C@H](C(=O)N[C@@H](CC(=O)O)C(=O)N[C@@H](CCCNC(=N)N)C(=O)N[C@@H](CC(C)C)C(=O)N[C@@H](CC(N)=O)C(=O)N[C@@H](CCC(=O)O)C(=O)N[C@H](C(=O)N[C@@H](C)C(=O)N[C@@H](CCCCN)C(=O)N[C@@H](CCC(=O)O)C(=O)N[C@@H](CC(C)C)C(=O)N[C@@H](CC(N)=O)C(=O)N[C@@H](CCC(=O)O)C(=O)N[C@@H](CO)C(=O)N[C@@H](CC(C)C)C(=O)N[C@H](C(=O)N[C@@H](CC(=O)O)C(=O)N[C@@H](CC(C)C)C(=O)N[C@@H](CCC(N)=O)C(=O)N[C@@H](CCC(=O)O)C(=O)N[C@@H](CC(C)C)C(=O)O)[C@@H](C)CC)C(C)C)[C@@H](C)CC)[C@@H](C)CC)C(C)C)C(C)C)[C@@H](C)CC` [Polypeptide P3-5], the “Increase multiple (fold increase in the inhibitory effect compared to the polypeptide P3)” value is 0.5 and the 50% inhibitory concentration (IC50) turned out to be 1590 nM.

As to `CC[C@H](C)[C@H](N)C(=O)N[C@@H](CO)C(=O)NCC(=O)N[C@H](C(=O)N[C@@H](CC(N)=O)C(=O)N[C@@H](C)C(=O)N[C@@H](CO)C(=O)N[C@H](C(=O)N[C@H](C(=O)N[C@@H](CC(N)=O)C(=O)N[C@H](C(=O)N[C@@H](CCCCN)C(=O)N[C@@H](CCC(=O)O)C(=O)N[C@@H](CCC(=O)O)C(=O)N[C@H](C(=O)N[C@@H](CC(=O)O)C(=O)N[C@@H](CCCNC(=N)N)C(=O)N[C@@H](CC(C)C)C(=O)N[C@@H](CC(N)=O)C(=O)N[C@@H](CCC(=O)O)C(=O)N[C@H](C(=O)N[C@@H](C)C(=O)N[C@@H](CCCCN)C(=O)N[C@@H](CC(N)=O)C(=O)N[C@@H](CC(C)C)C(=O)N[C@@H](CC(N)=O)C(=O)N[C@@H](CCC(=O)O)C(=O)N[C@@H](CO)C(=O)N[C@@H](CC(C)C)C(=O)N[C@H](C(=O)N[C@@H](CC(=O)O)C(=O)N[C@@H](CC(C)C)C(=O)N[C@@H](CCC(N)=O)C(=O)N[C@@H](CCC(=O)O)C(=O)N[C@@H](CC(C)C)C(=O)O)[C@@H](C)CC)C(C)C)[C@@H](C)CC)[C@@H](C)CC)C(C)C)C(C)C)[C@@H](C)CC` [Polypeptide P3-4], the “Increase multiple (fold increase in the inhibitory effect compared to the polypeptide P3)” value amounted to 3.3 and the IC50 turned out to be 240 nM.

(Values after patent US20240228547A1, “POLYPEPTIDE FOR RESISTING NOVEL CORONAVIRUS AND APPLICATION THEREOF” (INSTITUTE OF MICROBIOLOGY, CHINESE ACADEMY OF SCIENCES, priority 2021, published 2024).)
